# Experiments:
# OC43 = OC43 infection of A549 cells, viral nucleoprotein staining; format: cell-based, human beta coronavirus OC43; details: for Inhibition of OC43 infection, dose-response validation (in words): A549 cells; for EC50: Betacoronavirus 1, OC43, A549, 96 h, read-out: EC50 against OC43 infection
# 3CL = system: 3CL; parameters: method as in doi:10.1101/2020.08.29.272864; details: read-out: Previously reported IC50 in cells; cited from earlier work
# other RNA viruses = assay: Replication of other RNA viruses; format: cell-based
# [1] = mouse, in vivo
# [2] = feline model of asthma; cited from earlier work
# multiple picornaviruses = assay: Replication of picornaviruses; format: cell-based; details: fig. S8B
# [3] = system: SARS-CoV-2 (nCoV/Washington/1/2020); format: in vivo, mice
# SARS-CoV-2 3CL = molecular target: T1, SARS-CoV-2 3CL (Severe acute respiratory syndrome coronavirus 2, UniProt P0DTD1); assay: Fluorescence-based 3CL enzyme activity assay in vitro (enzyme kinetics, Dixon plot); format: biochemical; details: range of substrate and inhibitor concentrations, SigmaPlot fit
# T1 construct: the main viral protease, known as Mpro, 3CLpro, or nonstructural protein 5 (nsp5); made in house
# Description: Individual measurements are shown as semitransparent gray circles. Error bars depict means ± SEM. […] Individual measurements are shown as circles. […] RFU, relative fluorescence units.
# To test this, we measured the rate of the 3CL enzymatic reaction in vitro using a fluorescence-based enzyme activity assay ([29]). We measured the rate of 3CL activity in a range of substrate and inhibitor concentrations and fitted the data to equations describing different modes of inhibition using SigmaPlot Enzyme Kinetics Module 1.3 (see methods).
# PLpro = molecular target: T2, PLpro (Severe acute respiratory syndrome coronavirus 2, UniProt P0DTD1); assay: PLpro activity assay; format: biochemical, SARS-CoV-2; details: fig. S7
# T2 construct: the papain-like protease, PLpro, a domain within nsp3
# 3C protease = 3C protease (Coxsackievirus B3, UniProt P03313); format: cell-based, picornaviruses
# Sequence of 3C protease (P03313 1541-1723 limits assumed): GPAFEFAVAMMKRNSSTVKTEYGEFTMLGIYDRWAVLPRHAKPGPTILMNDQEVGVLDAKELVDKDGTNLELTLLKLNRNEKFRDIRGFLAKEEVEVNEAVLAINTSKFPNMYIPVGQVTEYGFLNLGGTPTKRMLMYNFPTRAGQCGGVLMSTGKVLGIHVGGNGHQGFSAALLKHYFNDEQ
# [4] = 25 mg kg−1 twice a day, day six
structure (smiles),measurement,setting,value
Cc1ccc(NC(=O)c2ccc(CN3CCNCC3)cc2)cc1Nc1nc(-c2cccnc2)cs1 [AB3280],"Inhibition of OC43 infection, dose-response validation (in words)",OC43,maintains its antiviral activity
C[C@@H]1[C@H](O)[C@@H](C)/C=C/C=C/C=C/C=C/C=C/C=C/C=C/[C@H](O[C@@H]2O[C@H](C)[C@@H](O)[C@H](N)[C@@H]2O)C[C@@H]2O[C@](O)(C[C@@H](O)C[C@@H](O)[C@H](O)CC[C@@H](O)C[C@@H](O)CC(=O)O[C@H]1C)C[C@H](O)[C@H]2C(=O)O [Amphotericin B],EC50,OC43,0.19 µM
Cc1ccc(NC(=O)c2ccc(CN3CC[C@H](N(C)C)C3)c(C(F)(F)F)c2)cc1Nc1nccc(-c2cncnc2)n1 [Bafetinib],EC50,OC43,2.1 µM
CCCCOC(=O)c1ccc(N)cc1 [Butamben],EC50,OC43,3.1 µM
CCCCOC(=O)c1ccc(O)cc1 [Butylparaben],EC50,OC43,1.7 µM
COc1cc2c(Oc3ccc4[nH]c(C)cc4c3F)ncnc2cc1OCCCN1CCCC1 [Cediranib],EC50,OC43,0.52 µM
COc1ccc2cc1Oc1ccc(cc1)C[C@H]1c3c(cc4c(c3Oc3cc5c(cc3OC)CCN(C)[C@@H]5C2)OCO4)CCN1C [Cepharanthine],EC50,OC43,0.77 µM
CN(C)CCCN1c2ccccc2CCc2ccc(Cl)cc21 [Clomipramine],OC43 infection in drug-repurposing screen,"OC43; 10 μM, 4 days",top hits
COC(=O)N[C@H](C(=O)N1CCC[C@H]1c1nc(-c2ccc3c(c2)O[C@@H](c2ccccc2)n2c-3cc3cc(-c4c[nH]c([C@@H]5CCCN5C(=O)[C@@H](NC(=O)OC)C(C)C)n4)ccc32)c[nH]1)C(C)C [Elbasvir],EC50,OC43,0.17 µM
OCCN1CCN(CCC=C2c3ccccc3Sc3ccc(C(F)(F)F)cc32)CC1 [Flupenthixol],EC50,OC43,1.8 µM
O=C(Oc1cncc(Cl)c1)c1cccc2[nH]ccc12 [GRL-0496],IC50,3CL,5 µM
CS(=O)(=O)CCNCc1ccc(-c2ccc3ncnc(Nc4ccc(OCc5cccc(F)c5)c(Cl)c4)c3c2)o1 [Lapatinib],EC50,OC43,3.1 µM
Cc1ccc(NC(=O)c2ccc(CN3CCN(C)CC3)cc2)cc1Nc1nc(-c2cccnc2)cs1 [Masitinib],EC50,OC43,2.1 µM
same,Effect on replication of other RNA viruses,other RNA viruses,not the replication of other RNA viruses
same,Tolerability of dose,[1],"well tolerated, with minimal weight loss"
same,Airway inflammation and lung functions,[2],decrease airway inflammation and improve lung functions
same,Effect on replication of picornaviruses,multiple picornaviruses,effective in blocking the replication of multiple picornaviruses
same,Reduction in viral titers in the lungs and nose (log),[3]; [4],greater than two-log reduction
same,Reduction of the viral load,[3]; [4],> 99%
same,"Concentrations of proinflammatory cytokines (such as IL-1β, IFN-γ) in the lungs",[3]; day six,significantly reduced
same,Overall lung pathology,"[3]; day six, blindly scored 0 to 4",improved overall lung pathology
same,Reduction in viral titers in the lungs,"[3]; mouse, in vivo",> 200 fold
same,Reduction in viral titers in the nose,"[3]; mouse, in vivo",> 200 fold
same,"Survival, weight loss and clinical scores",[3]; up to 10 days,improvements in survival
same,Mode of 3CL inhibition,SARS-CoV-2 3CL,competitive inhibition gave the best fit
same,Effect on PLpro activity,PLpro,no effect
same,Effect on 3C protease activity,3C protease,significantly inhibited the activity of the 3C protease
O=C(c1ccc(OCCN2CCCCC2)cc1)c1c(-c2ccc(O)cc2)sc2cc(O)ccc12 [Raloxifene],EC50,OC43,2.7 µM
CCC(CC)COC(=O)[C@H](C)N[P@](=O)(OC[C@H]1O[C@@](C#N)(c2ccc3c(N)ncnn23)[C@H](O)[C@@H]1O)Oc1ccccc1 [Remdesivir],EC50,OC43,0.96 µM
COC[C@H]1C[C@@H](c2nc(-c3ccc4c(c3)COc3cc5c(ccc6nc([C@@H]7CC[C@H](C)N7C(=O)[C@@H](NC(=O)OC)C(C)C)[nH]c65)cc3-4)c[nH]2)N(C(=O)[C@H](NC(=O)OC)c2ccccc2)C1 [Velpatasvir],EC50,OC43,2 µM
CC[C@H]1OC(=O)[C@H](C)[C@@H](O[C@H]2C[C@@](C)(OC)[C@@H](O)[C@H](C)O2)[C@H](C)[C@@H](O[C@@H]2O[C@H](C)C[C@H](N(C)C)[C@H]2O)[C@](C)(O)C[C@@H](C)C(=O)[C@H](C)[C@@H](O)[C@]1(C)O [erythromycin],"Inhibition of OC43 infection, dose-response validation (in words)",OC43,failed validation
Cc1ccc(O)c([C@H](CCN(C(C)C)C(C)C)c2ccccc2)c1 [tolertodine],"Inhibition of OC43 infection, dose-response validation (in words)",OC43,weak inhibitors of OC43 infection
